Results as given in paper PMC9046208, “Foldamers reveal and validate therapeutic targets associated with toxic α-synuclein self-assembly” (Nature Communications, 2022).

How the values were obtained:
[1] = target: T1, αS seed-catalyzed aggregation (Homo sapiens, UniProt P37840); test: Seed-catalyzed ThT aggregation assay (10% WT αS seeds), WT αS; type: biochemical; conditions: equimolar ratio
T1 construct: made in house; host or cells: Escherichia coli BL21(DE3), periplasm
Description: Seed-catalyzed αS aggregation assay was performed similarly to a previously described protocol. Briefly, 100 μM monomeric WT αS solution (200 μL, in 1x PBS buffer) was placed into a ThermoMixer (Eppendorf, Hamberg, Germany) and shook for five days at a rate of […] and 37 °C. The solution was sonicated for 10 min and used as αS seeds. The seed-catalyzed aggregation of WT αS/ αS variants was performed by adding αS seeds (10% seeds, αS in monomeric concentration, v/v) into 140 μL of fresh 100 μM WT αS/ αS variants solution and aggregation was started with constant shaking at a rate of […] and 37 °C. The aggregation of proteins was monitored at the indicated times (See the main manuscript) using the above-mentioned method.
The ThT aggregation assay for each protein (WT αS and αS variants) in the presence of SK-129 was carried out the above-mentioned method. SK-129 (from 10 mM stock solution in DMSO) was added at an equimolar ratio (1% DMSO, v/v) to the proteins at the start of the aggregation experiment. The concentration of DMSO was kept constant (1%, v/v) in protein (WT αS and αS variants), control, and protein+molecule solutions. The kinetic profiles of protein aggregation were processed using OriginPro software (Version 9.1). Kinetic curves were fit using a built-in sigmoidal fit in the OriginLab.

Aβ42 aggregation = Aβ42 aggregation (Homo sapiens, UniProt P05067); test: ThT aggregation assay, Aβ42; type: biochemical; conditions: equimolar ratio
Chain of Aβ42 aggregation (P05067 672-713 limits assumed): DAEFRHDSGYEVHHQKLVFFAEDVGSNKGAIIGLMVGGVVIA
Description: The aggregation kinetics of αS was monitored using ThT fluorescence assay (λex = 450 nm and λem = 485 nm). To study the aggregation kinetics of αS, the ThT dye at a final concentration of 50 μM was added to 100 μM αS solution in the aggregation buffer (1 x PBS buffer) with and without various concentrations of SK-129 in a Costar black 96–well plate (Corning Inc., Kennebunk, ME). The small molecules were dissolved in dimethyl sulfoxide (DMSO; final DMSO concentration = 0.5%, v/v). The final volume in each well was 140 μL. The plate was incubated at 37 °C with 16 min shaking (434 rpm) and 44 min without shaking in an Infinite M200PRO plate reader (Tecan, Männedorf, Switzerland) and fluorescence was recorded after every hour. We used two methods to quantify the effect of molecules on the aggregation of αS; either we have reported the t50 (time required to reach 50% fluorescence of ThT), which was extracted by fitting the ThT curve as a sigmoidal fit or the absolute ThT fluorescence intensity was reported. […] In the second method, we determined the final ThT fluorescence intensity for the aggregation of αS/Aβ42(with or without ligands) as an average of three separate experiments. […]
The data were expressed as mean and the error bars report the s.e.m. […]

[2] = test system: primary rat hippocampal neurons; test: LDH release assay, primary rat hippocampal neurons; type: cell-based; conditions: PD + SK-129 PMCA sample, 21 days; PD sample ~8-fold higher than control
Description: The rat embryos (both male and female) at embryonic day 18 were used to prepare the primary neurons according to previously published protocol. After removing all the meninges, the hippocampi were isolated from the fetal rat brain and kept in the dissection solution (1x HBSS, 10 mM HEPES buffer, 5 µg/mL Gentamicin, pH 7.3, Thermo Fisher Scientific, Waltham, MA). The hippocampi were minced and treated in the dissection solution containing 20 U/ml Papain (Worthington Biochemical Corp., Lakewood, NJ) and triturated in 50 µg/ml Dnase I (Sigma-Aldrich, St.Louis, MO). The isolated cells were plated on 1 mg/mL Poly-L-Lysine (Sigma-Aldrich, St.Louis, MO) coated μ-slide eight-well plate (Ibidi, Munich, Germany) at 200,000 cells/mL in neuron plating medium, which includes Minimum Essential Media (MEM)(Thermo Fisher Scientific, Waltham, MA) supplemented with 5% FBS (Thermo Fisher Scientific, Waltham, MA) and glucose (Sigma-Aldrich, St.Louis, MO). […]
The LDH assay was performed on the primary neurons treated with various conditions and incubated for 21 DIV. The release of LDH was measured using a Cytotox 96 Non-Radioactive Cytotoxicity Assay kit (Promega, Madison, WI) by following the instructions provided by the manufacturers. […] The absorbance of the media in the wells was measured at 490 nm using a 96-well plate reader.

COC(=O)c1cc(OCC(=O)O)c2cccc(NC(=O)c3cc(OC(C)C)c4cccc(NC(=O)c5cc(OCC(=O)O)c6cccc(NC(=O)c7cc(OC(C)C)c8cccc([N+](=O)[O-])c8n7)c6n5)c4n3)c2n1 [SK-129]
effect on seed-catalyzed aggregation [1]: wholly suppressed | effect on Aβ aggregation (Aβ42 aggregation): did not show any noticeable effect | neurotoxicity (LDH release) [2]: did not observe any significant neurotoxicity
